Measured values reported in patent publication US9290440B2, “Bicyclic compound” (TOA EIYO LTD., priority 2012, dated 2016).
Where two headings read alike, the source gives them in different places.

Target: T1, human sGC α subunit and β subunit (Homo sapiens, UniProt Q02153)
T1 construct: expressed in transfected cells
T1 sequence (Q02153 1-619): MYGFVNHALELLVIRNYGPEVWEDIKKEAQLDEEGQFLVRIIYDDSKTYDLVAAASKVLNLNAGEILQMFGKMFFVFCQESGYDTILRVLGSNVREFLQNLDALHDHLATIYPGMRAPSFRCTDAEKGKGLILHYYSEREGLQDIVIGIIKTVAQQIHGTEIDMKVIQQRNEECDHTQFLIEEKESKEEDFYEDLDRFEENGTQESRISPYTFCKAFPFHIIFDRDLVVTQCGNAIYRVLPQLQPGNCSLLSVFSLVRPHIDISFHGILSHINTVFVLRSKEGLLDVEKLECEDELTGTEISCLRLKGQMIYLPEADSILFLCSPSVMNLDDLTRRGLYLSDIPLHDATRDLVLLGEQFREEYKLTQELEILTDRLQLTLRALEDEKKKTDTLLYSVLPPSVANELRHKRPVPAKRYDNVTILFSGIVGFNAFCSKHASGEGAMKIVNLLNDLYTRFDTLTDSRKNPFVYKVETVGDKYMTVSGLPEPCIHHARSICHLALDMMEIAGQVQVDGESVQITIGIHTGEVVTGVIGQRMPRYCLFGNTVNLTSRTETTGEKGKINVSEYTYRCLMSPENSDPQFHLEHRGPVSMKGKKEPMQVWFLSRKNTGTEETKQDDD
T1 sequence (Q02108 1-690 partner): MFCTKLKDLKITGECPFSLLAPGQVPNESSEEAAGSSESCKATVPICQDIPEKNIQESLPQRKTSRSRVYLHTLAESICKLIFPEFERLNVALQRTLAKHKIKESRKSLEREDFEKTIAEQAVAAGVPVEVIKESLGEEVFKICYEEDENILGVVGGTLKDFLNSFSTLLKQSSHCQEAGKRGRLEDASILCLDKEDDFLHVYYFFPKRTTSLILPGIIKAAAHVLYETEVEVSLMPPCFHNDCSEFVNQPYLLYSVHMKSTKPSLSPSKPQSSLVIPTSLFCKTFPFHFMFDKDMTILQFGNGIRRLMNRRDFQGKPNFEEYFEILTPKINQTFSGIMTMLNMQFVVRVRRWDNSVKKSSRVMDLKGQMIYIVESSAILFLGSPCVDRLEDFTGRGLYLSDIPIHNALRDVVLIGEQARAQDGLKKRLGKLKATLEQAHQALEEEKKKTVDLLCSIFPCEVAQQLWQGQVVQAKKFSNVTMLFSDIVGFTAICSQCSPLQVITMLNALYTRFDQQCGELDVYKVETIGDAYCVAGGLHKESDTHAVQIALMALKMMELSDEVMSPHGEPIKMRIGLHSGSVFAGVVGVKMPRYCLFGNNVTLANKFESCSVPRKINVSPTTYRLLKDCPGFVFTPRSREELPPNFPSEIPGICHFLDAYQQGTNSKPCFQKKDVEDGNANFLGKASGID
Test: Maximum effect of sGC activating function (Ca2+ fluorescence in CHO-K1 cells expressing human sGC and mouse CNGA2)
Assay type: cell-based
Conditions: increase ratio of sGC activity vs control solution at 10 μmol/L test compound
Procedure, shortened: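 CHO-K1 cells stably expressing human sGC α/β and mouse CNGA2 were FURA2-AM loaded and then treated with compound at 10 μmol/L for 10 min at RT, in buffer containing 100 μmol/L IBMX, with or without 10 μmol/L ODQ. Ca²⁺ was read as the 340/380 nm excitation ratio. Activity is the % increase over the DMSO control.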

[1] = ODQ not contained, read-out: Emax (%) ODQ− (Heme-dependent)
[2] = with 10 μmol/L ODQ, read-out: Emax (%) ODQ+ (Heme-independent)

Compound | Emax at 10 µM [1] [%] | Emax at 10 µM [2] [%]
O=C(O)CCCCN(CCc1ccccc1OCc1ccc(CCc2ccccc2)cc1)Cc1ccc(C(=O)O)cc1 [Cinaciguat, reference compound] | 53 | 86
O=C(O)CCCCN(CCc1ccccc1OCc1cccc2c1CCCC2)C1CCCc2cc(C(=O)O)ccc21 (stereo not drawn) [Example 29, 5-{N-(4-Carboxybutyl)-N-[2-[2-(5,6,7,8-tetrahydronaphthalene-1-ylmethoxy)phenyl]ethyl]amino}-5,6,7,8-tetrahydronaphthalene-2-carboxylic acid] | 141 | 133
O=C(O)CCCCN(CCc1ccccc1OCc1ccc(SCc2ccccc2)cc1)C1CCCc2cc(C(=O)O)ccc21 (stereo not drawn) [Example 15, 5-{N-[2-[2-(4-Benzylsulfanylbenzyloxyl)phenyl]ethyl]-N-(4-carboxybutyl)amino}-5,6,7,8-tetrahydronaphthalene-2-carboxylic acid] | 101 | 99.9
